# From US20140079634A1, “LABELED PE2I FORMULATION AND METHOD” (priority 2012, published 2014)
# How the values were obtained:
# Format in all cases: in vivo
# dopamine transporter [1] = target: dopamine transporter (Rattus norvegicus, UniProt P23977); experiment: SPECT scan, transporter occupancy and binding parameters (Parkinson's Diagnosis)
# Experimental: A SPECT scan is performed. Strong evidence of different nonspecific binding in the striatal region, compared with the reference region is found, leading to bias in the estimate of dopaminergic denervation (range, 36%-94% severity) was found. […] The 6-hydroxydopamine lesion affected B(max) (control, 402±94 pmol/mL; lesioned, 117±120 pmol/mL; P=0.003) but not K app d (control, 331±63 pmol/mL; lesioned, 362±119 pmol/mL; P=0.63).
# dopamine transporter [2] = target: T1, dopamine transporter (Homo sapiens, UniProt Q01959); experiment: SPECT imaging of the dopamine transporter, Lewy Body Dementia subjects; conditions: six Lewy Body Dementia individuals, greater than 1 mCi intravenous
# T1 construct: from tissue; host or cells: striatum in vivo (SPECT imaging of subjects)
# T1 sequence (Q01959 whole entry): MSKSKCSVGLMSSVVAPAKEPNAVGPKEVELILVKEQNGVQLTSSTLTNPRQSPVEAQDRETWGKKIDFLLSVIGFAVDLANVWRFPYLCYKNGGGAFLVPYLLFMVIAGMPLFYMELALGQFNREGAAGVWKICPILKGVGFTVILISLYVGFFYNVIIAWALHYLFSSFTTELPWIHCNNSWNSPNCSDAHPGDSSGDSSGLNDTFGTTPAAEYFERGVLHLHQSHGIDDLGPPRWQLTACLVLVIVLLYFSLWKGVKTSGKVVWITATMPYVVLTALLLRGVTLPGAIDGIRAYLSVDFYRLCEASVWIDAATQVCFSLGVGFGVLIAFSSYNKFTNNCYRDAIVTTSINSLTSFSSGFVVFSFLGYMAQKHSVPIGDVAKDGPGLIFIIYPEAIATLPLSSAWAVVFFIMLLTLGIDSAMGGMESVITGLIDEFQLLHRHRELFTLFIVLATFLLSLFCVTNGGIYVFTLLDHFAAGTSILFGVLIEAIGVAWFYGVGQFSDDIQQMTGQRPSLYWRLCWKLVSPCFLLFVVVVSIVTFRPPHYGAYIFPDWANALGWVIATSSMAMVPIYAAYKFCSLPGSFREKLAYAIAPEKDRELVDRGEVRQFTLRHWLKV
# Experimental: (§1) SPECT imaging of the dopamine transporter with ^123I-PE2I is conducted on six subjects previously diagnosed with Lewy Body Dementia, and on control individuals without a diagnosis of Lewy Body Dementia. For each individual tested, greater than 1 mCi of ^123I-PE2I is administered by intravenous injection at the onset of imaging. Images of the striatum are collected and analyzed by a radiologist to determine striatal binding potentials. In general, the methodology used for the SPECT imaging is the same as the methods described in Fischman et al., 1998, Synapse 29:125 41, which is incorporated herein by reference.
# dopamine transporter [3] = target: T1, dopamine transporter; experiment: SPECT imaging of the dopamine transporter, ADHD subjects; conditions: six ADHD individuals, greater than 1 mCi intravenous
# Experimental: as §1, with “1231-PE2I” for “^123I-PE2I”, “ADHD,” for “Lewy Body Dementia,”, “ADHD.” for “Lewy Body Dementia.”, “29:125-41,” for “29:125 41,”
# dopamine transporter (Rattus norvegicus, UniProt P23977), sequence (P23977 whole entry): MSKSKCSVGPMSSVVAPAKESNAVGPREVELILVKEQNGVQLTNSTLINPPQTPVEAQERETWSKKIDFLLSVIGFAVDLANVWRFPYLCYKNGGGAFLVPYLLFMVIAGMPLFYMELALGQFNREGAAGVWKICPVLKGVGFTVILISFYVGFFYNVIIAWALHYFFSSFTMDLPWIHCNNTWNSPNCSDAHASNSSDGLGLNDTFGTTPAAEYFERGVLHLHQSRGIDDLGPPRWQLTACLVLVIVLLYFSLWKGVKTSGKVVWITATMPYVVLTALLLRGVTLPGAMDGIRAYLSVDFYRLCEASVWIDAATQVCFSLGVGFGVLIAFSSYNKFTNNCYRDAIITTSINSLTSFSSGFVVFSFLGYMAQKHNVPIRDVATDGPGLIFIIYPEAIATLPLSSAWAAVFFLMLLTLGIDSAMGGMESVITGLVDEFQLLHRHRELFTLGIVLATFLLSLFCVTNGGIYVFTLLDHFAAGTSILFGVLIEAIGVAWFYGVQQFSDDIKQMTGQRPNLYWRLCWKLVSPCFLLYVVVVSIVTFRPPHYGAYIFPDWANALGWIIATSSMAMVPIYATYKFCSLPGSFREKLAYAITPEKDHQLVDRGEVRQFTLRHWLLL
structure (smiles),measurement,setting,value
"COC(=O)[C@@H]1C2CC[C@H](C[C@@H]1c1ccc(C)cc1)N2C/C=C/I [[^123I]-PE2I, [^123I] N-(3-iodoprop-2E-enyl)-2β-carbomethoxy-3β-(4-methylphenyl)-nortropane]",B(max),dopamine transporter [1]; 6-hydroxydopamine lesioned,117 ± 120 pmol/mL
same,B(max),dopamine transporter [1]; control,402 ± 94 pmol/mL
same,striatal binding potential versus expected levels for aged matched normal individuals,dopamine transporter [2],reduced binding potential
same,striatal binding potential versus expected levels for aged matched normal individuals,dopamine transporter [3],reduced binding potential
